Reference: article PMC6268379, “Antifungal Activity of Homoaconitate and Homoisocitrate Analogs” (Molecules, 2012)
In brackets after ≈: the same amount, converted by molar mass. Read-outs that look alike come from different tables or passages of the source.

Columns and labels:
Candida krusei DSM 6128 = assay: Antifungal in vitro activity, microplate serial dilution (modified CLSI M27-A3); type: cell-based; conditions: Pichia kudriavzevii
[1] = tested on: Saccharomyces cerevisiae ATCC 9763; assay: as above; type: cell-based
[2] = tested on: Candida albicans ATCC 10231; assay: as above; type: cell-based
[3] = tested on: Candida lusitaniae DSM 70102; assay: as above; type: cell-based; conditions: Clavispora lusitaniae
[4] = tested on: Candida tropicalis KKP 334; assay: as above; type: cell-based
[5] = tested on: Candida glabrata DSM 11226; assay: as above; type: cell-based; conditions: Nakaseomyces glabratus
[6] = biological target: recombinant homoisocitrate dehydrogenase (HIcDH) (Candida albicans, UniProt Q5A9D9); assay: Homoisocitrate dehydrogenase activity, NADH absorption at 340 nm; type: biochemical; conditions: for effect on enzyme activity (homoisocitrate dehydrogenase): ester derivatives, concentrations up to 10 mM; for IC50: recombinant C. albicans His-tagged HIcDH, inhibitor 0–10 mM, mean of three determinations ± SD
Chain of recombinant homoisocitrate dehydrogenase (HIcDH) (Q5A9D9 entry or part of it): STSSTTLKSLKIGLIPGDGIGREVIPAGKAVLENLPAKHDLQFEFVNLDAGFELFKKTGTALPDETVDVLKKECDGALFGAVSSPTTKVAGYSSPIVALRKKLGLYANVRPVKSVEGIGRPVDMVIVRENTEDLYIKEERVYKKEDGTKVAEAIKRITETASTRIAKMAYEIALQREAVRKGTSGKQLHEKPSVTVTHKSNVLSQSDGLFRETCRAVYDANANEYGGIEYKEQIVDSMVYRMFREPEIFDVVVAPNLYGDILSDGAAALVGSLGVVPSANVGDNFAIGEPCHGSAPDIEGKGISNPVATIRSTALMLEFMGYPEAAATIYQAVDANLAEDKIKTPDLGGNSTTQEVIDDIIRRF
Procedure: (§1) Recombinant C. albicans homoaconitase (HA) and homoisocitrate dehydrogenase (HIcDH) containing oligoHis N-terminal tags were constructed and purified to near homogeneity as described earlier.
Reaction catalyzed by homoisocitrate dehydrogenase (HIcDH) was monitored by measuring the NADH absorption at 340 nm. The standard assay mixture contained 10 mM KCl, 5.0 mM MgCl2, 5 mM NAD^+ and 0.1 mM (2R,3S)-homoisocitrate in 50 mM Hepes-NaOH (pH 7.8) buffer. The reaction mixture with all required components except for the enzyme was preincubated for 3 min and the reaction was started by an addition of the recombinant His6-HIcDH (50 μg). The formation of NADH was measured for 30 s at 20 °C to determine initial reaction velocity. The initial rates were determined using a linear portion of the reaction progress curve.
(§2) The effects of novel compounds on the HA and HIcDH activity was determined by measuring the enzyme activity in standard assay mixtures containing various concentration of an inhibitor (0–10 mM). Inhibitory potential was expressed as IC50 values, i.e., concentrations causing 50% inhibition of enzyme activity in relation to control. All determinations were performed in triplicate.

[7] = biological target: T1, recombinant homoaconitase (HA) (Candida albicans, UniProt Q5A644); assay: Homoaconitase activity, coupled reaction with HIcDH, NADH at 340 nm; type: biochemical; conditions: for effect on enzyme activity (homoaconitase): ester derivatives, concentrations up to 10 mM
T1 construct: made in house
T1 sequence (Q5A644 1-684): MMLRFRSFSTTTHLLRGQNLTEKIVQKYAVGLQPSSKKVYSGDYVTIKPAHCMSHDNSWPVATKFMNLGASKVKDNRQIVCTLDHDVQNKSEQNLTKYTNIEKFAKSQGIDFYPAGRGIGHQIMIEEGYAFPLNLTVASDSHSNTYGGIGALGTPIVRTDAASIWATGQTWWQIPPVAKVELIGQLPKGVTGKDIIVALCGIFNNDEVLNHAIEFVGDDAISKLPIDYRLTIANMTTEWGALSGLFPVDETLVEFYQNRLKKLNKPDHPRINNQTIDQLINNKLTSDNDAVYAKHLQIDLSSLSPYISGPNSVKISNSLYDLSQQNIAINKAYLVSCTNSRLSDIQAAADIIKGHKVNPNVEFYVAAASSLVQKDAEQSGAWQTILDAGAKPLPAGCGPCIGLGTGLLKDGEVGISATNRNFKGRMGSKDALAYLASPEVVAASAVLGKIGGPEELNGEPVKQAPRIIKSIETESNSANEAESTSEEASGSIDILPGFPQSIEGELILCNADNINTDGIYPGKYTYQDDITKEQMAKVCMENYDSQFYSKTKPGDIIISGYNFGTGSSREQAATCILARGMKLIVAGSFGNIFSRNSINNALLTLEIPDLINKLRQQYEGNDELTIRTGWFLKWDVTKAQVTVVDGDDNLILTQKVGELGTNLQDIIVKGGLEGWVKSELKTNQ
Procedure: as §1
Activity of homoaconitase (HA) was measured by a coupled reaction with HIcDH by monitoring the reduction of NAD^+ to NADH at 340 nm. Reaction mixtures containing 50 mM Tris-HCl (pH 8.5), 50 mM KCl, 5 mM MgCl2, 20 mM dithiothreitol, 1 mM NAD^+ and 30 μg/mL of His6-HIcDH in a total volume of 0.9 mL were degassed under argon for 10 min, after which 0.05 mL of His6-HAC solution was added to a final concentration of 10 μg/mL. The reaction was initiated with addition of 0.05 mL of 50 mM (R)-homocitrate. The formation of NADH was measured for 30 s at 20 °C to determine initial reaction velocity. The initial rates were determined using a linear portion of the reaction progress curve.
as §2

six yeast strains = assay: In vitro antifungal activity against six yeast strains; type: cell-based; conditions: for antifungal activity: salts, six yeast strains, stated in words
[8] = DSM6128, RPMI-1640 pH 7.0, 24 h at 37 °C, at least 80% decrease in turbidity, read-out: MIC C. krusei
[9] = ATCC9763, RPMI-1640 pH 7.0, 24 h at 37 °C, at least 80% decrease in turbidity, read-out: MIC S. cerevisiae
[10] = ATCC10231, RPMI-1640 pH 7.0, 24 h at 37 °C, at least 80% decrease in turbidity, read-out: MIC C. albicans
[11] = DSM70102, RPMI-1640 pH 7.0, 24 h at 37 °C, at least 80% decrease in turbidity, read-out: MIC C. lusitaniae
[12] = KKP334, RPMI-1640 pH 7.0, 24 h at 37 °C, at least 80% decrease in turbidity, read-out: MIC C. tropicalis
[13] = DSM11226, RPMI-1640 pH 7.0, 24 h at 37 °C, at least 80% decrease in turbidity, read-out: MIC C. glabrata
[14] = DSM6128, 24 h, pH 7, read-out: MIC C. krusei
[15] = ATCC9763, 24 h, pH 7, read-out: MIC S. cerevisiae
[16] = ATCC10231, 24 h, pH 7, read-out: MIC C. albicans
[17] = DSM70102, 24 h, pH 7, read-out: MIC C. lusitaniae
[18] = KKP334, 24 h, pH 7, read-out: MIC C. tropicalis
[19] = DSM11226, 24 h, pH 7, read-out: MIC C. glabrata

| SMILES | MIC (Candida krusei DSM 6128; [8]) [µg/mL] | MIC [1, 9] [µg/mL] | MIC [2, 10] [µg/mL] | MIC [3, 11] [µg/mL] | MIC [4, 12] [µg/mL] | MIC [5, 13] [µg/mL] | Km ([6]; recombinant C. albicans HIcDH, read-out: KM of recombinant HIcDH for cofactor) [mM] | effect on enzyme activity (homoaconitase) [7] | effect on enzyme activity (homoisocitrate dehydrogenase) [6] | IC50 [7] [mM] | IC50 [6] [mM] | antifungal activity (six yeast strains) | MIC (Candida krusei DSM 6128; [14]) [µg/mL] | MIC [1, 15] [µg/mL] | MIC [2, 16] [µg/mL] | MIC [3, 17] [µg/mL] | MIC [4, 18] [µg/mL] | MIC [5, 19] [µg/mL] | MIC values, range over susceptible yeast strains (six yeast strains; range stated in text over the tested yeast strains) [µg/mL] |
| --- | --- | --- | --- | --- | --- | --- | --- | --- | --- | --- | --- | --- | --- | --- | --- | --- | --- | --- | --- |
| C=CC[C@@H](C(=O)OC)[C@H](O)C(=O)OC [Compound 5c, Dimethyl (2S,3R)-2-hydroxy-3-allylsuccinate] | > 512 | > 512 | > 512 | > 512 | > 512 | > 512 | – | – | – | – | – | – | – | – | – | – | – | – | – |
| NC(=O)c1ccc[n+]([C@@H]2O[C@H](COP(=O)([O-])OP(=O)(O)OC[C@H]3O[C@@H](n4cnc5c(N)ncnc54)[C@H](O)[C@@H]3O)[C@@H](O)[C@H]2O)c1 [NAD^+, reference compound] | – | – | – | – | – | – | 1.1 | – | – | – | – | – | – | – | – | – | – | – | – |
| CCC[C@@H](C(=O)OC)[C@@H](F)C(=O)OC [Compound 6a, Dimethyl (2R,3S)-2-fluoro-3-propylsuccinate] | > 512 | > 512 | > 512 | 512 (≈ 2480 µM) | > 512 | > 512 | – | – | – | – | – | – | – | – | – | – | – | – | – |
| COC(=O)CC[C@@H](C(=O)OC)[C@@H](F)C(=O)OC [Compound 9, trimethyl (1R,2S)-1-fluorobutane-1,2,4-tricarboxylate] | 256 (≈ 1020 µM) | > 512 | 128 (≈ 512 µM) | > 512 | 64 (≈ 256 µM) | 256 (≈ 1020 µM) | – | none | none | – | – | – | – | – | – | – | – | – | – |
| O=C(O)CCC1(C(=O)O)OC1C(=O)O (stereo not drawn) [Compound 4, Tripotassium (1E)1,2-epoxy-butane-1,2,4-tricarboxylate] | > 512 | > 512 | > 512 | > 512 | > 512 | > 512 | – | – | – | 5.76 ± 0.34 | > 10 | None | – | – | – | – | – | – | – |
| CCCC[C@@H](C(=O)OC)[C@H](O)C(=O)OC [Compound 5b, Dimethyl (2S,3R)-2-hydroxy-3-butylsuccinate] | > 512 | > 512 | > 512 | > 512 | > 512 | > 512 | – | – | – | – | – | – | – | – | – | – | – | – | – |
| C=CC[C@@H](C(=O)[O-])[C@@H](F)C(=O)[O-].[K+].[K+] [Compound 7c, Dipotassium (2R,3S)-2-fluoro-3-allylsuccinate] | – | – | – | – | – | – | – | – | – | > 10 | 6.78 ± 0.56 | None | > 512 | > 512 | > 512 | 512 | > 512 | > 512 | – |
| CCCC[C@@H](C(=O)OC)[C@@H](F)C(=O)OC [Compound 6b, Dimethyl (2R,3S)-2-fluoro-3-butylsuccinate] | > 512 | > 512 | 256 (≈ 1160 µM) | 128 (≈ 581 µM) | 128 (≈ 581 µM) | 512 (≈ 2320 µM) | – | – | – | – | – | – | – | – | – | – | – | – | – |
| O=C([O-])CC[C@@H](C(=O)[O-])[C@@H](F)C(=O)[O-].[K+].[K+].[K+] [Compound 10, tripotassium (1R,2S)-1-fluorobutane-1,2,4-tricarboxylate] | – | – | – | – | – | – | – | – | – | > 10 | 3.22 ± 0.55 | None | > 512 | > 512 | > 512 | > 512 | > 512 | > 512 | – |
| COC(=O)CCC1(C(=O)OC)OC1C(=O)OC (stereo not drawn) [Compound 3, Trimethyl (1E)1,2-epoxy-butane-1,2,4-tricarboxylate] | > 512 | > 512 | 256 (≈ 1040 µM) | 512 (≈ 2080 µM) | 128 (≈ 520 µM) | 128 (≈ 520 µM) | – | none | none | – | – | – | – | – | – | – | – | – | 128 to 512 |
| O=C([O-])/C=C(\CCC(=O)[O-])C(=O)[O-].[K+].[K+].[K+] [Compound 2, tripotassium (1E)-but-1-ene-1,2,4-tricarboxylate] | – | – | – | – | – | – | – | – | – | 1.58 ± 0.11 | > 10 | None | > 512 | > 512 | > 512 | > 512 | > 512 | > 512 | – |
| C=CC[C@@H](C(=O)OC)[C@@H](F)C(=O)OC [Compound 6c, Dimethyl (2R,3S)-2-fluoro-3-allylsuccinate] | 512 (≈ 2510 µM) | > 512 | 256 (≈ 1250 µM) | > 512 | 256 (≈ 1250 µM) | 256 (≈ 1250 µM) | – | – | – | – | – | – | – | – | – | – | – | – | – |
| OC(Cn1cncn1)(Cn1cncn1)c1ccc(F)cc1F [Flu, Fluconazole, reference compound] | 8 (≈ 26.1 µM) | 4 (≈ 13.1 µM) | 4 (≈ 13.1 µM) | 4 (≈ 13.1 µM) | 2 (≈ 6.53 µM) | 8 (≈ 26.1 µM) | – | – | – | – | – | – | – | – | – | – | – | – | – |
| CCC[C@@H](C(=O)OC)[C@H](O)C(=O)OC [Compound 5a, Dimethyl (2S,3R)-2-hydroxy-3-propylsuccinate] | > 512 | > 512 | > 512 | > 512 | > 512 | > 512 | – | – | – | – | – | – | – | – | – | – | – | – | – |
